One assay deals with FOL wt. In words: Enzyme assay p-NP butyrate, inhibitory effect of peptides on FoL wildtype (Example 8). The following applies: fitted against inhibitor/lipase ratio (peptide excess 0.5 to 1000), pH 7. In kind it is biochemical, Fusarium oxysporum. The method, then: (§1) Enzyme assay: The substrate used for these experiments was para-nitropenyl (p-NP) butyrate (N9876 Sigma Aldrich). A substrate stock solution was prepared by adding 18 μL of p-NP butyrate to 1 ml of 2-propanol giving a 100 mM stock solution. The working solution was prepared by diluting 500 μL stock solution in final volume of 50 mL 500 mM phosphate pH 7, 0.4% triton X-100. […] An enzyme substrate blank containing 60 μL was included. After pre-incubation in minimum 15 minutes, 100 μL of substrate was added and the reaction was followed in microtiter plate spectrophotometer (SPECTRAmax PLUS 384 from Molecular Devices) after an initial shaking (5 sec.) at room temperature. Colour development over time was monitored at A405 (every 20 sec. for 30 minutes), measuring p-nitrophenol, one of the degradation products of p-NP butyrate, liberated by the hydrolysis.
(§2) Initial reaction rates (determined as the linear initial slope of A405 plotted against time) were plotted against the logarithm to the inhibitor/lipase ratio. From the following model IC50 values were determined:
(§3) v0 is the initial reaction rate, vmax is the maximum rate, vmin is the minimum reaction rate and IC50 is the half maximal inhibitory concentration. GraphPad Prism (v.5.00, Mar. 12, 2007) from GraphPad Software, Inc. was used for regression.

For a further assay, the target named is FOL I207E variant. In words: Enzyme assay p-NP butyrate, inhibitory effect of peptides on FoL variant I207E (Example 8). The format is biochemical, Fusarium oxysporum. The following applies: for IC50 value (half maximal inhibitory concentration): FOL I207E variant, fitted against inhibitor/lipase ratio (peptide excess 0.5 to 1000), p-NP butyrate, pH 7. The method, then: as §1, §2, §3
Sequence of FOL I207E variant (as listed by the source, stated change not applied): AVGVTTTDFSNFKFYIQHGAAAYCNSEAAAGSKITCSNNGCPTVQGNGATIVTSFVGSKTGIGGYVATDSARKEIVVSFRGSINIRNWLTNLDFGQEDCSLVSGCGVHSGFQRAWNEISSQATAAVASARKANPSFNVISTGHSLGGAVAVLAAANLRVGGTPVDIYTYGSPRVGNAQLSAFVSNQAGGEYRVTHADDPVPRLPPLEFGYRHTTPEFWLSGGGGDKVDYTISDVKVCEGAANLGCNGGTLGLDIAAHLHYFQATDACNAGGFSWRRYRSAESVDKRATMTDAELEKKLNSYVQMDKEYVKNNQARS

Assay [1] has as its target T1, TLL variant N248G/Q249G/P250T/N251L/I252G/P253L (Thermomyces lanuginosus, UniProt O59952, I274G/N270G/N273L/P272T/P275L/Q271G).
T1 sequence (O59952 23-291 N270G/Q271G/P272T/N273L/I274G/P275L): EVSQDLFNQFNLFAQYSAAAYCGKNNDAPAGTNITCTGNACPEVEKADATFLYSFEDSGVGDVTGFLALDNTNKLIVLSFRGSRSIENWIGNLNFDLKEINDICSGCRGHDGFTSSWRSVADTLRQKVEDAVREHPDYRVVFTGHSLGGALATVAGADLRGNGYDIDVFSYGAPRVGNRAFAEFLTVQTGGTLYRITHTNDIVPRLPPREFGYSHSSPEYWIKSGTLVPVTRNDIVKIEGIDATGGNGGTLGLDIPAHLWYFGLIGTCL
In words: Enzyme assay p-NP butyrate, inhibitory effect of peptides on TLL variant (Example 9). The following applies: peptide/lipase ratios 5 to 5000 (P11, P13), 6 to 6000 (P12). The format is biochemical. The method, then: as §1, §2, §3
Enzyme assay: As described above.

The nature of assay [2]: Lecithin plate assay, clearing zone (phospholipase activity). As to conditions: for Clearing zone diameter: after 20 hours incubation. The format is biochemical.

For the molecule “ATMTDAELTKKLNSYVQMDKEYVKNNQARS [Peptide P2]”, the “IC50 value (half maximal inhibitory concentration)” value on FOL wt is on record as “Very low”.
Regarding “ATMTDAELEKKLNSYVQMDKEEVKNNQARS [Peptide P4]”, the “IC50 value (half maximal inhibitory concentration)” value at FOL wt is recorded as “No”; at FOL I207E variant, “Very low”.
As to “ATMTEAELEKKLNSYVQMDKEYVKNNQARS [Peptide P1]”, the “IC50 value (half maximal inhibitory concentration)” value at FOL wt is listed as “Very low”.
For the molecule “ATMTDAELEKKLNSYVQMDKEYVKNNQARS [Peptide P0]”, in the assay with FOL I207E variant (0% inhibition assumed for lowest peptide concentration), the “binding of the peptide by FoL variant I207E compared with wildtype enzyme (% inhibition curves, FIG. 8 C)” value was “better at binding the peptide than the wildtype enzyme”.
As for “ATMTDAEVEKKLNSYVQMDKEYVKNNQARS [Peptide P11]”, the “IC50 value (half maximal inhibitory concentration)” value in assay [1] is “Very low”.
As to ATMTDAELEKKLNSYVQMAKEYVKNNQARS [P1′], the “IC50 value (half maximal inhibitory concentration)” value at FOL wt and at FOL I207E variant was “No” each time.

B1: FoL: Fusarium oxysporum lipase, SEQ ID No. 1 (protein, listed as Fusarium oxysporum)
chain: AVGVTTTDFSNFKFYIQHGAAAYCNSEAAAGSKITCSNNGCPTVQGNGATIVTSFVGSKTGIGGYVATDSARKEIVVSFRGSINIRNWLTNLDFGQEDCSLVSGCGVHSGFQRAWNEISSQATAAVASARKANPSFNVISTGHSLGGAVAVLAAANLRVGGTPVDIYTYGSPRVGNAQLSAFVSNQAGGEYRVTHADDPVPRLPPLIFGYRHTTPEFWLSGGGGDKVDYTISDVKVCEGAANLGCNGGTLGLDIAAHLHYFQATDACNAGGFSWRRYRSAESVDKRATMTDAELEKKLNSYVQMDKEYVKNNQARS
For B1, the Clearing zone diameter was found to be 7 mm in assay [2] (ODA280 0.2) and 10 mm in assay [2] (ODA280 0.5).

B2: TLL: Thermomyces lanuginosus lipase, SEQ ID No. 9 (protein, listed as Thermomyces lanuginosus)
chain: EVSQDLFNQFNLFAQYSAAAYCGKNNDAPAGTNITCTGNACPEVEKADATFLYSFEDSGVGDVTGFLALDNTNKLIVLSFRGSRSIENWIGNLNFDLKEINDICSGCRGHDGFTSSWRSVADTLRQKVEDAVREHPDYRVVFTGHSLGGALATVAGADLRGNGYDIDVFSYGAPRVGNRAFAEFLTVQTGGTLYRITHTNDIVPRLPPREFGYSHSSPEYWIKSGTLVPVTRNDIVKIEGIDATGGNNQPNIPDIPAHLWYFGLIGTCL
Consider B2, for which the Clearing zone diameter in assay [2] (ODA280 0.2) and in assay [2] (ODA280 0.5) was 0 mm each time. The “Clearing zone (in words)” value in assay [2] (after 20 hours of incubation, ODA280 0.2 and 0.5) is listed as “did not show a clearing zone”.

Source of the values: US8288510B2, “Isolated peptides having phospholipase inhibitory activity” (priority 2008, dated 2012).
